The text below walks through data of PMC6284401 (Journal of peptide science : an official publication of the …, 2018).

The conditions of data set [1]: mouse, in vivo.
For data set [2] the following is noted: human serum, HPLC AUC vs time.
In another data set the test system is p-HER2. Kind of data set: Western blot of total and phosphorylated HER2, BT-474. It is filed as cell-based. The note with it: BT-474 cells, 1.5 μM, 36 h. A general note: Immunoblotting shows a protein as a band on a membrane.
The next data set concerns MCF-7 cells. Put plainly: Confocal microscopy binding, MCF-7 cells. It is filed as cell-based. The settings on record: 0.5 μM, 30 min.
For data set [3] the following is noted: cited from earlier work.

Consider `N=C(N)NCCC[C@H]1NC(=O)C[C@H](c2cccc3ccccc23)NC(=O)[C@@H](Cc2ccccc2)NC(=O)[C@@H](CC(=O)O)NC(=O)[C@H]2CCCN2C(=O)[C@@H]2CCCN2C(=O)[C@@H](CCCNC(=N)N)NC(=O)C[C@H](c2cccc3ccccc23)NC(=O)[C@@H](Cc2ccccc2)NC(=O)[C@@H](CC(=O)O)NC1=O` [compound 32, Cyclo(Ppdf-(R)Anapa-rdf-(R)Anapa-r], for which, in data set [1], the “Compound detected after 12 h compared to the 15 min” value is given as ~70%. The “Time stable in serum” value in data set [2] stood at 48 h. In the data set on p-HER2, the “Level of p-HER2 (Western blot)” value is recorded as “decreased the level of p-HER2” and the “Total-HER2 protein levels (Western blot)” value is recorded as “did not show any significant effect”.

`N=C(N)NCCC[C@@H]1NC(=O)[C@H]2CCCN2C(=O)[C@@H]2CCCN2C(=O)[C@H](CCCCNC(=O)c2ccc3c(c2)C2(OC3=O)c3ccc(O)cc3Oc3cc(O)ccc32)NC(=O)C[C@H](c2cccc3ccccc23)NC(=O)[C@H](Cc2ccccc2)NC(=O)[C@H](CC(=O)O)NC(=O)[C@H](CC(=O)O)NC(=O)[C@H](Cc2ccccc2)NC(=O)C[C@H](c2cccc3ccccc23)NC1=O` [compound 44, Cyclo(PpR-(R)Anapa-FDDF-(R)Anapa-K-(6-FAM)]: the “Binding to cells by confocal microscopy (green fluorescence)” value in the data set on MCF-7 cells is “does not bind significantly”.

Regarding “Cyclo(PpR-((R) Anapa)FDDF-((R) Anapa)R [compound 18]”, in data set [3], the “Stability in serum in vitro” value is “more than 48 h”.
